# According to US20030220517A1, “Method for producing ketocarboxylic acid derivatives” (priority 2000, published 2003):
# Test: not given
# Conditions: not given
row,melting point [°C],SMILES
1,165 to 168,"O=C(O)CCC(=O)c1ccc(-c2ccc3c(c2)OC(F)(F)C(F)(F)O3)cc1 [Example 5, 4-oxo-4-(3′,4′-tetrafluoroethylenedioxo-biphenyl-4-yl)butyric acid]"

# Test: log P determination by HPLC on reversed-phase column (EEC Directive 79/831 Annex V.A8)
# Type: physicochemical
# Conditions: reversed-phase C18 HPLC column, reversed-phase column (C 18), 43° C., acidic range pH 2.3, 0.1% aqueous phosphoric acid/acetonitrile gradient
# Procedure: The log P values given in the use examples above are determined in accordance with EEC Directive 79/831 Annex V.A8 by HPLC (High Performance Liquid Chromatography) on a reversed-phase column (C 18). Temperature: 43° C. The determination is carried out in the acidic range at pH 2.3 using the mobile phases 0.1% aqueous phosphoric acid and acetonitrile; linear gradient from 10% acetonitrile to 90% acetonitrile. Calibration is carried out using unbranched alkan-2-ones (with 3 to 16 carbon atoms) with known logP values (determination of the logP values by the retention times using linear interpolation between two successive alkanones).
row,chromatographic logP,SMILES
1,3.8,"O=C1CCC(c2ccc(-c3ccc(OC(F)(F)F)cc3)cc2)N1C(CO)c1ccccc1 (centres unmarked) [VII-1, 1-[2-hydroxy-1-phenylethyl]-5-[4′-(trifluoromethoxy)-1,1′-biphenyl-4-yl]-2-pyrrolidinone]"
2,4.78,"O=C1CCC(c2ccc(-c3ccc(OC(F)(F)F)cc3)cc2)N1C(CCl)c1ccccc1 (centres unmarked) [VIII-1, 1-[2-chloro-1-phenylethyl]-5-[4′-(trifluoromethoxy)-1,1′-biphenyl-4-yl]-2-pyrrolidinone]"
3,2.95,"O=C1CCC(c2ccc(-c3ccc(OC(F)(F)F)cc3)cc2)N1 (centres unmarked) [Example X-1, 5-[4′-(trifluoromethoxy)-1,1′-biphenyl-4-yl]-2-pyrrolidinone]"
4,4.35,"C=C(c1ccccc1)N1C(=O)CCC1c1ccc(-c2ccc(OC(F)(F)F)cc2)cc1 (centres unmarked) [IX-1, 1-(1-phenylvinyl)-5-[4′-(trifluoromethoxy)-1,1′-biphenyl-4-yl]-2-pyrrolidinone]"
5,4.13,"Fc1cccc(F)c1C1=N[C@@H](c2ccc(-c3ccc(OC(F)(F)F)cc3)cc2)CC1 [Example V-1, (2R)-5-(2,6-difluorophenyl)-2-[4′-(trifluoromethoxy)-1,1′-biphenyl-4-yl]-3,4-dihydro-2H-pyrrole]"

row,SMILES,chromatographic logP
1,"CC(C)(C)OC(=O)NC(CCC(=O)c1c(F)cccc1F)c1ccc(-c2ccc(OC(F)(F)F)cc2)cc1 (centres unmarked) [XIII-1, tert-butyl 4-(2,6-difluorophenyl)-4-oxo-1-[4′-(trifluoromethoxy)-1,1′-biphenyl-4-yl]butylcarbamate]",5.18
2,"CC(C)(C)OC(=O)N1C(=O)CCC1c1ccc(-c2ccc(OC(F)(F)F)cc2)cc1 (centres unmarked) [XI-1, tert-butyl 2-oxo-5-[4′-(trifluoromethoxy)-1,1′-biphenyl-4-yl]-1-pyrrolidinecarboxylate]",4.32
